ChEMBL document CHEMBL1201862, “PubChem BioAssay data set” (2004)
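These data come from cells grown in 96-well plates and exposed to compound for 48 hours at five concentrations. GI50 = concentration required for 50% inhibition of growth.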 The source made the active and inactive calls. Rule as the data show it: active = GI50 up to about 1.1 µM and inactive = higher.

Key:
Assay in all cases: growth of human tumour cells (NCI), 48 h
786-0 = system: 786-0
A498 = system: A498
A549 = system: A549
ACHN = system: ACHN
CAKI-1 = system: CAKI-1
CCRF-CEM = system: CCRF-CEM
COLO 205 = system: COLO 205
DLD-1 = system: DLD-1
DMS-114 = system: DMS-114
DMS-273 = system: DMS-273
EKVX = system: EKVX
HCC 2998 = system: HCC 2998
HCT-116 = system: HCT-116
HCT-15 = system: HCT-15
HL-60 = system: HL-60
HOP-18 = system: HOP-18
HOP-62 = system: HOP-62
HOP-92 = system: HOP-92
HT-29 = system: HT-29
IGROV-1 = system: IGROV-1
K562 = system: K562
KM-20L2 = system: KM-20L2
KM12 = system: KM12
LOX IMVI = system: LOX IMVI
LXFL 529 = system: LXFL 529
M14 = system: M14
M19-MEL = system: M19-MEL
MOLT-4 = system: MOLT-4
Malme-3M = system: Malme-3M
NCI-H226 = system: NCI-H226
NCI-H23 = system: NCI-H23
NCI-H460 = system: NCI-H460
OVCAR-3 = system: OVCAR-3
OVCAR-4 = system: OVCAR-4
OVCAR-5 = system: OVCAR-5
OVCAR-8 = system: OVCAR-8
RPMI-8226 = system: RPMI-8226
RXF 393 = system: RXF 393
SF-268 = system: SF-268
SF-295 = system: SF-295
SF-539 = system: SF-539
SK-MEL-28 = system: SK-MEL-28
SK-MEL-2 = system: SK-MEL-2
SK-MEL-5 = system: SK-MEL-5
SN12C = system: SN12C
SNB-75 = system: SNB-75
SNB-78 = system: SNB-78
SR = system: SR
SW-620 = system: SW-620
TK-10 = system: TK-10
U-251 = system: U-251
UACC-257 = system: UACC-257
UACC-62 = system: UACC-62
UO-31 = system: UO-31

COP(=O)(CC(=O)C1OC(C)(C)OC1C(O)COCc1ccccc1)OC (centres undefined)
GI50 (786-0): > 100 µM (inactive)
GI50 (A498): > 100 µM (inactive)
GI50 (A549): > 100 µM (inactive)
GI50 (ACHN): > 100 µM (inactive)
GI50 (CAKI-1): > 100 µM (inactive)
GI50 (CCRF-CEM): > 100 µM (inactive)
GI50 (COLO 205): > 100 µM (inactive)
GI50 (DLD-1): > 100 µM (inactive)
GI50 (DMS-114): > 100 µM (inactive)
GI50 (DMS-273): > 100 µM (inactive)
GI50 (EKVX): > 100 µM (inactive)
GI50 (HCC 2998): > 100 µM (inactive)
GI50 (HCT-116): > 100 µM (inactive)
GI50 (HCT-15): > 100 µM
GI50 (HL-60): > 100 µM (inactive)
GI50 (HOP-18): > 100 µM (inactive)
GI50 (HOP-62): > 100 µM (inactive)
GI50 (HOP-92): > 100 µM (inactive)
GI50 (HT-29): > 100 µM (inactive)
GI50 (IGROV-1): > 100 µM (inactive)
GI50 (K562): > 100 µM (inactive)
GI50 (KM-20L2): > 100 µM (inactive)
GI50 (KM12): > 100 µM (inactive)
GI50 (LOX IMVI): > 100 µM (inactive)
GI50 (LXFL 529): > 100 µM (inactive)
GI50 (M14): > 100 µM (inactive)
GI50 (M19-MEL): > 100 µM (inactive)
GI50 (MOLT-4): > 100 µM (inactive)
GI50 (Malme-3M): > 100 µM (inactive)
GI50 (NCI-H226): > 100 µM (inactive)
GI50 (NCI-H23): > 100 µM (inactive)
GI50 (NCI-H460): > 100 µM (inactive)
GI50 (OVCAR-3): > 100 µM (inactive)
GI50 (OVCAR-4): > 100 µM (inactive)
GI50 (OVCAR-5): > 100 µM (inactive)
GI50 (OVCAR-8): > 100 µM (inactive)
GI50 (RPMI-8226): > 100 µM (inactive)
GI50 (RXF 393): > 100 µM (inactive)
GI50 (SF-268): > 100 µM (inactive)
GI50 (SF-295): > 100 µM (inactive)
GI50 (SF-539): > 100 µM (inactive)
GI50 (SK-MEL-28): > 100 µM (inactive)
GI50 (SK-MEL-2): > 100 µM (inactive)
GI50 (SK-MEL-5): 46.2 µM (inactive)
GI50 (SN12C): > 100 µM (inactive)
GI50 (SNB-75): > 100 µM (inactive)
GI50 (SNB-78): > 100 µM (inactive)
GI50 (SR): > 100 µM (inactive)
GI50 (SW-620): > 100 µM (inactive)
GI50 (TK-10): > 100 µM (inactive)
GI50 (U-251): > 100 µM (inactive)
GI50 (UACC-257): > 100 µM (inactive)
GI50 (UACC-62): > 100 µM (inactive)
GI50 (UO-31): > 100 µM (inactive)
